Laboratory results taken from patent publication US10213444B2, “Composition and method for treating bipolar disorder” (LAUREATE INSTITUTE FOR BRAIN RESEARCH, priority 2014, dated 2019).

Legend:
[1] = system: subjects with bipolar disorder during a current major depressive episode (bipolar depression); assay: Double-blind, placebo-controlled 2×2 trial in bipolar depression (MADRS, YMRS); assay type: in vivo, human; details: LOCF; for Percentage of female responders: female patients; for Percentage of female responders / Percentage of responders (BMI >30): >50% reduction in MADRS; for Percentage of responders (BMI >30): subset BMI >30; for Percentage of responders: total sample, response = greater than 50% reduction in MADRS baseline to final, 6 weeks, ASA 81 mg b.i.d., minocycline 100 mg b.i.d. p.o.
Method: (§1) The above pharmaceutical compound comprising minocycline and acetylsalicylic acid was tested using a double-blind, placebo-controlled trial with a 2×2design. The study examined subjects with bipolar disorder during a current major depressive episode (“bipolar depression”). Most subjects were either partial responders to existing antidepressant and/or mood stabilizing treatments or were treatment resistant. The subjects were randomized to receive either (1) placebo-minocycline plus placebo-acetylsalicylic acid, or (2) active-minocycline (100 mg b.i.d.) plus placebo-acetylsalicylic acid, or (3) placebo-minocycline plus active-acetylsalicylic acid (81 mg b.i.d.), or (4) active-minocycline (100 mg b.i.d.) plus active-acetylsalicylic acid (81 mg b.i.d.) (FIG. 1). Clinical symptoms of depression and mania were measured using the Montgomery-Asberg Depression Rating Scale (MADRS) and the Young Mania Rating Scale (YMRS), respectively.
For the data produced below, the treatment method for administering the combination of each composition, including the active-minocycline and active-acetylsalicylic acid, entailed the following steps: administer ASA 81 mg p.o b.i.d and minocycline 100 mg p.o b.i.d. As depicted in FIG. 1, each session number (total of 7) is encircled, with the timing between sessions indicated in weeks with a 2business day window on either side of visit target date to complete the visit. Session 1(far left) is the baseline and session 7(far right) is the study end. The study duration is 6weeks.
Of the 99patients who were randomized, 87started treatment and completed a sufficient number of sessions (at least 3weeks of treatment) to be included in the last-observation carried forward analysis (LOCF) shown below. For these 87subjects, 79completed the entire study. Eight subjects dropped-out early, all from the active treatment groups—4from minocycline+ASA, 3from ASA+placebo, and one from minocycline+placebo. Since existing anti-depressant medications generally begin to exert antidepressant effects within 3weeks, in this trial, data from patients with at least 3weeks of treatment were including in the LOCF analysis.
Response to medication/placebo was defined as a greater than 50% reduction in MADRS scores between the baseline and final assessment. Table 2provides results reflecting percentage of treatment responders by group, and relative risk reduction (RRR), absolute risk reduction (ARR) and, number needed to treat (NNT) for the combination ASA/minocycline treatment.

[2] = system: patients with major depressive disorder; assay: Same trial, subset of patients with major depressive disorder (unipolar depression); assay type: in vivo, human; details: subset with major depressive disorder (n=10)
Method: as §1
In the subset of patients with major depressive disorder (n=10), 75% responded to the combination of minocycline+ASA (3/4) compared to 50% response in the minocycline+placebo group (1/2), and 0% in the ASA+placebo group (0/3). The data document that the combination of minocycline and ASA has effectiveness for the treatment of additional forms of non-bipolar depression such as major depressive disorder and dysthymia. […]

[3] = administered orally; cited from earlier work
[4] = system: individuals receiving lithium treatment (bipolar symptoms); details: cited from earlier work
[5] = administered orally; cited from earlier work; remark: listed apart in the source

SMILES: CC(=O)Oc1ccccc1C(=O)O [ASA, acetylsalicylic acid]
- Percentage of female responders [1]: 50%
- Percentage of responders (BMI >30) [1]: 44%
- Percentage of responders [1]: 56%
- percent responded (MADRS response) [2]: 0%
- brain to blood ratio [3]: 0.32
- level within brain as percent of level within blood plasma [3]: 32%
- effect on medication events ([4]; high-dose aspirin or other anti-inflammatory classes added to lithium treatment): increase in medication events
- less likely to have a medication event ([4]; low-dose (≤81 to 162 mg/day) aspirin added to lithium treatment): 17%

SMILES: CN(C)c1ccc(O)c2c1C[C@H]1C[C@H]3[C@H](N(C)C)C(O)=C(C(N)=O)C(=O)[C@@]3(O)C(O)=C1C2=O [minocycline]
- Percentage of female responders [1]: 55%
- Percentage of responders (BMI >30) [1]: 38%
- Percentage of responders [1]: 38%
- percent responded (MADRS response) [2]: 50%
- level within cerebrospinal fluid as percent of plasma concentrations [5]: 11-56%
